Test results reported in ChEMBL document CHEMBL4425176, “1,2,3-Triazoles as inhibitors of indoleamine 2,3-dioxygenase 2 (IDO2)” (Bioorg Med Chem Lett, 2016).

Legend:
Assay type in all cases: cell-based
[1] = target: T1, Indoleamine 2,3-dioxygenase 1 (Homo sapiens, UniProt P14902); assay: Inhibition of human IDO1 transfected in HEK293T cells assessed as kynurenine formation using L-Trp as substrate at 200 uM after 7 hrs
Target sequence in this assay (P14902 whole entry, looked up): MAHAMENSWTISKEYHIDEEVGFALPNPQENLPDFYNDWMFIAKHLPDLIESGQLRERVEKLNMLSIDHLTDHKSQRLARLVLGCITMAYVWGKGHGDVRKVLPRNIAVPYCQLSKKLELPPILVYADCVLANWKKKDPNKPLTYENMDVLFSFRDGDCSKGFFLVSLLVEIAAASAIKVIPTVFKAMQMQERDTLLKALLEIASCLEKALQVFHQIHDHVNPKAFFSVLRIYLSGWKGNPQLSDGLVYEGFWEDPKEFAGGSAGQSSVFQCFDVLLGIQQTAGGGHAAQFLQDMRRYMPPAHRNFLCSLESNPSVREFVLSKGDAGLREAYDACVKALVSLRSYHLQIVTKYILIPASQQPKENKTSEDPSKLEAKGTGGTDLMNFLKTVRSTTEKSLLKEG

[2] = target: T2, Indoleamine 2,3-dioxygenase 2 (Mus musculus) (UniProt Q8R0V5); assay: Inhibition of mouse IDO2 transfected in HEK293T cells assessed as kynurenine formation using L-Trp as substrate at 200 uM after 24 hrs
T2 sequence (whole entry): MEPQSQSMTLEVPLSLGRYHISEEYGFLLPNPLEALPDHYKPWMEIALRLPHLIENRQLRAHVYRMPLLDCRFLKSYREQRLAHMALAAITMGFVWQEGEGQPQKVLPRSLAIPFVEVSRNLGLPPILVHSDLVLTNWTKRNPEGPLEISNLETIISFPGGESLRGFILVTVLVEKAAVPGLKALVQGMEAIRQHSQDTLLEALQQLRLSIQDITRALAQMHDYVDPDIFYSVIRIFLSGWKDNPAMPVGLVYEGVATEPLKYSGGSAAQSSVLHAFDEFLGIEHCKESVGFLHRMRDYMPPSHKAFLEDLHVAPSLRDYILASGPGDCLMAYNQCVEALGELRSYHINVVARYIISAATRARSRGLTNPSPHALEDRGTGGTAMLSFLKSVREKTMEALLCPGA

[3] = Selectivity ratio of IC50 for human IDO1 to IC50 for mouse IDO2 transfected in HEK293T cells
[4] = target: T3, Indoleamine 2,3-dioxygenase 2 (Mus musculus, UniProt Q8R0V5); assay: Inhibition of mouse IDO2 transfected in HEK293T cells assessed as kynurenine formation using L-Trp as substrate after 24 hrs
T3 sequence (Q8R0V5 whole entry): T2 sequence (whole entry)

HEK-293T = assay: Cytotoxicity against HEK293T cells transfected with human IDO1 or mouse IDO2 assessed as apoptotic cells at 200 uM after 7 hrs or 24 hrs by DAPI staining based cytometric analysis relative to control
[5] = target: T1, Indoleamine 2,3-dioxygenase 1; assay: Inhibition of human IDO1 transfected in HEK293T cells assessed as kynurenine formation using L-Trp as substrate after 7 hrs
Target sequence in this assay (P14902 whole entry): as the sequence (P14902 whole entry, looked up) above

SMILES	inhibition [1]	inhibition [2]	IC50 [4]	IC50 [5]	Ratio IC50 [3]	Activity (HEK-293T)
c1ccc(Cc2ccccc2-c2c[nH]nn2)cc1	84%	80%	70 µM	105 µM	1.5	0%
Clc1cccc(-c2c[nH]nn2)c1CCC1CCCC1	71%	90%	–	–	–	21.5%
Clc1cccc(-c2c[nH]nn2)c1/C=C/c1ccccc1	32%	97%	–	–	–	57.9%
Clc1ccccc1-c1cnn[nH]1	83%	4%	–	–	–	–
Oc1ccccc1-c1c[nH]nn1	96%	14%	–	–	–	0.2%
Clc1ccc(CCc2ccccc2)c(-c2c[nH]nn2)c1	70%	97%	–	–	–	51.6%
Clc1ccccc1-c1c[nH]nn1	–	–	–	–	–	0.2%
Oc1ccc(Cl)cc1-c1c[nH]nn1	98%	43%	120 µM	–	–	0%
c1ccc(-c2c[nH]nn2)c(CCC2CCCC2)c1	74%	89%	–	–	–	35.1%
OC(Cc1ccccc1-c1c[nH]nn1)c1ccccc1 (configuration not stated)	28%	47%	–	–	–	0%

Now from value to molecule, other results behind:

inhibition [1]	inhibition [2]	IC50 [4]	IC50 [5]	SMILES	Ratio IC50 [3]	Activity (HEK-293T)
9%	27%	–	–	Clc1ccc(-c2c[nH]nn2)cc1	–	–
58%	90%	51 µM	100 µM	c1ccc(CCc2ccccc2-c2c[nH]nn2)cc1	2	3.7%
56%	65%	110 µM	110 µM	Clc1cccc(-c2c[nH]nn2)c1/C=C/C1CCCCC1	1	5.4%
93%	1%	–	–	c1ccc(-c2cnn[nH]2)cc1	–	5.3%
76%	94%	–	–	Clc1cccc(-c2c[nH]nn2)c1CCc1ccccc1	–	70.8%
95%	2%	–	–	Clc1cccc(-c2c[nH]nn2)c1	–	0%
77%	95%	–	–	c1ccc(-c2c[nH]nn2)c(CCC2CCCCC2)c1	–	72.3%
